Laboratory results: US20110021477A1, “COMBINATIONS COMPRISING […] AGENTS AND CORTICOSTERIODS” (priority 2004, published 2011)

Tested on: ovoalbumin-sensitized guinea-pig isolated tracheal rings
Assay: Inhibition of antigen (ovoalbumin)-induced contraction in ovoalbumin-sensitized guinea-pig isolated tracheal rings (organ bath)
Experimental: Male Dunkin-Hartley guinea-pigs (weighing 380-420 g) from Harlan Ibérica (St. Feliu de Codines, Spain) are used. They are housed, with free access to food and water, in rooms kept at 22±2° C. under a 12 hours light-dark cycle until the start of the experiment.
The animals are sensitised by means of two sessions of aerosolization with a solution of 5 mg/ml of ovoalbumin on days zero and 7 of the study. The aerosolization procedure consists of two 30-s nebulisations (Efbe air brush apparatus) with an interval of 5 minutes with animals maintained in a plexiglass box for 10 minutes since the beginning of the procedure.
Between days 14 to 20 from the beginning of the experiment the animals are euthanised and the tracheal tissue is removed. A single tracheal ring is excised and suspended in an organ bath containing Krebs solution. Once attached to a force isometric transducer, it is submitted to a basal resting tension of 1 g, equilibrated with a mixture a 5% CO2 in O2 and maintained at 37° C.
The preparations are allowed to equilibrate for a period of not less than 60 minutes and then the vehicle or the compound(s) to be tested are added to the bath. […] At this moment ovoalbumin is added (at a final concentration in the bath of 10 μg/ml) to elicit the contractile response which is measured immediately.
The contractile responses measured with a force isometric transducer are expressed in mg.

Question: What does the source list for `C[C@H]1C[C@H]2[C@@H]3CCC4=CC(=O)C=C[C@]4(C)[C@@]3(Cl)[C@@H](O)C[C@]2(C)[C@@]1(O)C(=O)CO` [BECLOMETHASONE, beclomethasone]?
Answer: % INHIBITION OF THE CONTRACTILE RESPONSE (each compound 10 μM in bath, ovoalbumin 10 μg/ml, relative to vehicle): 12%; inhibition of the contractile response to antigen, comparison in words (ovoalbumin-sensitized guinea-pig tracheal rings, summary of Table 1 and FIG. 1): smaller effect
